From US20130045952A1, “ABA Receptor Agonists for Increased Plant Stress Resistance” (Van Andel Research Institute, priority 2011, published 2013)

Experiments:
Assay type in all cases: biochemical
His6-PYL3 / biotin-PP2C = target: T1, His6-PYL3 / biotin-PP2C (Arabidopsis thaliana, UniProt Q9SSM7); experiment: AlphaScreen luminescence proximity assay, PYL3-PP2C interaction; conditions: for Stimulation of the interaction between PYL3 and PP2C (binding signal): 100 nM His6-PYL3, 100 nM biotin-PP2C, 100 μM agonist, normalized against a pyrabactin control
T1 construct: made in house; host or cells: not expressly stated for PYL3
T1 sequence (Q9SSM7 1-209): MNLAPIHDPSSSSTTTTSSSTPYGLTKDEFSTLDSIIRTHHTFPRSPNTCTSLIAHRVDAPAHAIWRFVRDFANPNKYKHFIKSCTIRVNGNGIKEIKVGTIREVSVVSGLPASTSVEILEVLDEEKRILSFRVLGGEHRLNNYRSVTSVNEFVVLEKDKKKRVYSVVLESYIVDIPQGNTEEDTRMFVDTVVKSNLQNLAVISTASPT
Method: (§1) Mutant proteins were expressed as H6GST-fusion proteins and purified by glutathione sepharose chromatography. Protein-protein interactions were determined by luminescence proximity AlphaScreen assay. Biotinylated PP2C proteins for the luminescence proximity assay were generated by in vivo biotinylation of avitag-PP2C fusion proteins. PP2C phosphatase activity was measured by phosphate release from a SnRK2.6 phosphoprotein.
(§2) Interactions between PYR/PYL and PP2Cs were assessed by luminescence-proximity AlphaScreen technology (Perkin Elmer). Briefly, biotinylated PP2Cs were attached to streptavidin-coated donor beads, and H6-tagged PYR/PYL receptors were attached to nickel-chelated acceptor beads. The donor and acceptor beads were brought into proximity by the interactions between PYR/PYLs and PP2Cs, which were measured with and without ligands. When excited by a laser beam of 680 nm, the donor beam emits singlet oxygen that activates thioxene derivatives in the acceptor beads, which releases photons of 520-620 nm as the binding signal. The experiments were conducted with 100 nM of PP2Cs and PYR/PYL proteins in the presence of 5 ug/ml donor and acceptor beads in a buffer of 50 mM MOPS, pH7.4, 50 mM NaF, […], and 0.1 mg/ml bovine serum albumin. The results were based on an average of three experiments with standard errors typically less than 10% of the measurements.
(§3) Values were determined in different experiments and normalized against a pyrabactin control. Blank spaces mean no experimental data is available. Key (photon counts (binding signal units) in Alphascreen luminescence proximity assay): “+++ is >75,000; ++ is 25,000−75,000; + is <25,000.

ABI2 = target: T2, ABI2 (Arabidopsis thaliana, UniProt O04719+O49686); experiment: PP2C phosphatase activity assay, ABI2; conditions: 200 nM PP2C; SnRK2.6 phosphopeptide substrate; None = 100
T2 construct: ABI1 (residues 117-434) and ABI2 (residues 101-423) were expressed as H6Sumo fusion proteins; H6Sumo (N); made in house; host or cells: E. coli BL21
T2 sequence (O04719 101-423 limits assumed): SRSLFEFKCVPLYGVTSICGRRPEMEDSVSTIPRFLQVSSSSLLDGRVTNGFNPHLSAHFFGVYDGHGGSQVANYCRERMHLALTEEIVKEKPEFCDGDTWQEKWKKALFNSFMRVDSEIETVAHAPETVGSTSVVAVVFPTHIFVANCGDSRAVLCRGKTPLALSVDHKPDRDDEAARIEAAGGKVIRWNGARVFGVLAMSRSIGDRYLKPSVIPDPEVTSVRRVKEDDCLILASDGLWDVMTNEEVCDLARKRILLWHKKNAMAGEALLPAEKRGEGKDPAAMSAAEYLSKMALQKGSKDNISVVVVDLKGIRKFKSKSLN
T2 sequence (O49686 1-191): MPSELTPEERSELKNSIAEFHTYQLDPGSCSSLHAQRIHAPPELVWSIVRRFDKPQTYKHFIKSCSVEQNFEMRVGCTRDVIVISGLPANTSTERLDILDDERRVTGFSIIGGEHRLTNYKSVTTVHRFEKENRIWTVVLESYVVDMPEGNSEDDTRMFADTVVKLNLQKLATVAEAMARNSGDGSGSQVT
Method: as §1
(§4) PP2Cs and PYR/PYL proteins were pre-incubated at the indicated concentrations in 50 mM imidazole, pH 7.2, 5 mM MgCl2, 0.1% β-mercaptoethanol and 0.5 mg/ml BSA for 30 min at room temperature. Reactions were started by addition of 100 μM of a phosphopeptide corresponding to amino acids 170-180 of SnRK2.6 (HSQPK^pSTVGTP). This peptide is phosphorylated at a single residue corresponding to Ser175 in SnRK2.6, whose phosphorylation is required for SnRK2.6 kinase activity^32. Phosphate release from ^pS175 from the phosphopeptide was determined by colorimetric assay (BioVision).

His6-PYR1 / biotin-ABI2 = target: T3, His6-PYR1 / biotin-ABI2 (Arabidopsis thaliana, UniProt O49686); experiment: AlphaScreen dose response, PYR1-ABI2 interaction; conditions: 100 nM His6-PYR1, 100 nM biotin-PP2C, 0-100 μM agonist; from dose response curves
T3 construct: made in house; host or cells: E. coli (stated for the PP2Cs; not expressly for PYR1)
T3 sequence (O49686 1-191): T2 sequence (O49686 1-191)
T3 sequence (O04719 101-423 partner limits assumed): T2 sequence (O04719 101-423 limits assumed)
Method: as §2
The results shown in Table 5b were calculated from the dose response curves of the dependence of the interaction between 100 nM His6-PYR1 and 100 nM biotin-PP2C on the presence of 0-100 μM agonists determined by AlphaScreen luminescence proximity assay. Key (EC50 in μM): ++++=<5.0 μM; +++=5-10 μM; ++=10-20 μM; and +=>20-60 μM.

His6-PYL2 / biotin-PP2C = target: T4, His6-PYL2 / biotin-PP2C (Arabidopsis thaliana, UniProt O80992); experiment: AlphaScreen luminescence proximity assay, PYL2-PP2C interaction; conditions: for Stimulation of the interaction between PYL2 and PP2C (binding signal): 100 nM His6-PYL2, 100 nM biotin-PP2C, 100 μM agonist, normalized against a pyrabactin control
T4 construct: PYL2 (residues 14-188), and HAB1 (residues 172-511) were prepared as recombinant proteins in E. coli; made in house; host or cells: E. coli
T4 sequence (O80992 14-188): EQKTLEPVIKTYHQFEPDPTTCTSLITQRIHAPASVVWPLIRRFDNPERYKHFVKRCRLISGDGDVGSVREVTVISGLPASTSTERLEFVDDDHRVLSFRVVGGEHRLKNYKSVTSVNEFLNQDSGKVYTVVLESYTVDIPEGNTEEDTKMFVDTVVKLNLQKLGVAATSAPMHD
Method: as §1, §2, §3

[1] = test system: PP2Cs HAB1, ABI1, and ABI2; experiment: Phosphatase assays, PYR/PYL receptor-dependent inhibition of PP2Cs
Method: To determine the biochemical basis of these observations, we used purified proteins of PYR1 and PYL1 to PYL6 to measure their interactions with three PP2Cs, HAB1, ABI1, and ABI2, in vitro. […] In phosphatase assays, pyrabactin promoted PYR1, PYL1, PYL3, PYL5, and PYL6, but not PYL2 and PYL4, to inhibit all three PP2Cs.
as §1, §4

[2] = purified proteins in vitro, HAB1, ABI1, ABI2

CCN1C(=O)c2cccc3c(S(=O)(=O)NC[C@@H]4CCCO4)ccc1c23 [Compound 11]
Stimulation of the interaction between PYL3 and PP2C (binding signal) (His6-PYL3 / biotin-PP2C): ++ (++ is 25,000−75,000)
% Phosphatase Activity ABI2 (ABI2): 4.5 ± 0.5%
EC50 (His6-PYR1 / biotin-ABI2): 20 to 60 µM
Stimulation of the interaction between PYL2 and PP2C (binding signal) (His6-PYL2 / biotin-PP2C): + (+ is <25,000)

O=S(=O)(NCc1ccccn1)c1ccc(Br)c2ccccc12 [Pyrabactin, pyrabactin]
Promotion of PYL3 interaction with the three PP2Cs (His6-PYL3 / biotin-PP2C; [2]): promoted interaction
Effect on ABA-dependent inhibition of PP2Cs by PYL2 ([1]; high concentrations of pyrabactin, in the presence of ABA): reversed
Promotion of PYL1 to inhibit all three PP2Cs ([1]; phosphatase assays, receptor PYL1): promoted
Promotion of PYL2 to inhibit all three PP2Cs ([1]; phosphatase assays, receptor PYL2): not and did not promote
Promotion of PYL3 to inhibit all three PP2Cs ([1]; phosphatase assays, receptor PYL3): promoted
Promotion of PYL4 to inhibit all three PP2Cs ([1]; phosphatase assays, receptor PYL4): not
Promotion of PYL5 to inhibit all three PP2Cs ([1]; phosphatase assays, receptor PYL5): promoted
Promotion of PYL6 to inhibit all three PP2Cs ([1]; phosphatase assays, receptor PYL6): promoted
Promotion of PYR1 to inhibit all three PP2Cs ([1]; phosphatase assays, receptor PYR1): promoted
% Phosphatase Activity ABI2 (ABI2): 1.5 ± 0.8%
EC50 (His6-PYR1 / biotin-ABI2): 5 to 10 µM
Effect on ABA-dependent PYL2 interaction with all three PP2Cs (His6-PYL2 / biotin-PP2C; in the presence of ABA, concentration-dependent): inhibited
Promotion of PYL2 interaction with the three PP2Cs (His6-PYL2 / biotin-PP2C; [2]): did not promote

O=C1Nc2ccc(S(=O)(=O)NCc3ccccn3)c3cccc1c23 [Compound 1]
Stimulation of the interaction between PYL3 and PP2C (binding signal) (His6-PYL3 / biotin-PP2C): + (+ is <25,000)
% Phosphatase Activity ABI2 (ABI2): 3.2 ± 0.7%
EC50 (His6-PYR1 / biotin-ABI2): 20 to 60 µM
Stimulation of the interaction between PYL2 and PP2C (binding signal) (His6-PYL2 / biotin-PP2C): + (+ is <25,000)

CCOC(=O)CNS(=O)(=O)c1ccc2c3c(cccc13)C(=O)N2CC [Compound 2]
Stimulation of the interaction between PYL3 and PP2C (binding signal) (His6-PYL3 / biotin-PP2C): + (+ is <25,000)
% Phosphatase Activity ABI2 (ABI2): 3.8 ± 0.6%
EC50 (His6-PYR1 / biotin-ABI2): 20 to 60 µM
Stimulation of the interaction between PYL2 and PP2C (binding signal) (His6-PYL2 / biotin-PP2C): + (+ is <25,000)
